According to paper PMC12281424, “A Rac-specific competitive inhibitor of guanine nucleotide binding reduces metastasis in triple-negative breast cancer” (Cell Reports Medicine, 2025):

Assays:
Tie2 (h) = Tie2 (h) (Homo sapiens, UniProt Q02763); experiment: Kinase Profiler; assay type: biochemical
Experimental: (§1) Blood cell counts, kinase profiler, safety screen, bacterial cytotoxicity, Ames, micronucleus assays were performed by the company Eurofins (France). The kinase profiler was performed by the company Eurofins (Discovery, Panlab and Cerep).

PI3KC2g(h) = PI3KC2g(h) (Homo sapiens, UniProt O75747); experiment: Kinase Profiler; assay type: biochemical
Experimental: (§2) The kinase profiler was performed by the company Eurofins (Discovery, Panlab and Cerep).

TSSK1(h) = TSSK1(h) (Homo sapiens, UniProt Q9BXA7); experiment: Kinase Profiler; assay type: biochemical
Experimental: as §2

PKCα(h) = PKCα(h) (Homo sapiens, UniProt P17252); experiment: Kinase Profiler; assay type: biochemical
Experimental: as §2

CRIK(h) = CRIK(h) (Homo sapiens, UniProt O14578); experiment: Kinase Profiler; assay type: biochemical
Experimental: as §2

EGFR(T790M)(h) = EGFR(T790M)(h) (Homo sapiens, UniProt P00533, T790M); experiment: Kinase Profiler; assay type: biochemical
Experimental: as §2

LTK(h) = LTK(h) (Homo sapiens, UniProt P29376); experiment: Kinase Profiler; assay type: biochemical
Chain of LTK(h) (P29376 17-864): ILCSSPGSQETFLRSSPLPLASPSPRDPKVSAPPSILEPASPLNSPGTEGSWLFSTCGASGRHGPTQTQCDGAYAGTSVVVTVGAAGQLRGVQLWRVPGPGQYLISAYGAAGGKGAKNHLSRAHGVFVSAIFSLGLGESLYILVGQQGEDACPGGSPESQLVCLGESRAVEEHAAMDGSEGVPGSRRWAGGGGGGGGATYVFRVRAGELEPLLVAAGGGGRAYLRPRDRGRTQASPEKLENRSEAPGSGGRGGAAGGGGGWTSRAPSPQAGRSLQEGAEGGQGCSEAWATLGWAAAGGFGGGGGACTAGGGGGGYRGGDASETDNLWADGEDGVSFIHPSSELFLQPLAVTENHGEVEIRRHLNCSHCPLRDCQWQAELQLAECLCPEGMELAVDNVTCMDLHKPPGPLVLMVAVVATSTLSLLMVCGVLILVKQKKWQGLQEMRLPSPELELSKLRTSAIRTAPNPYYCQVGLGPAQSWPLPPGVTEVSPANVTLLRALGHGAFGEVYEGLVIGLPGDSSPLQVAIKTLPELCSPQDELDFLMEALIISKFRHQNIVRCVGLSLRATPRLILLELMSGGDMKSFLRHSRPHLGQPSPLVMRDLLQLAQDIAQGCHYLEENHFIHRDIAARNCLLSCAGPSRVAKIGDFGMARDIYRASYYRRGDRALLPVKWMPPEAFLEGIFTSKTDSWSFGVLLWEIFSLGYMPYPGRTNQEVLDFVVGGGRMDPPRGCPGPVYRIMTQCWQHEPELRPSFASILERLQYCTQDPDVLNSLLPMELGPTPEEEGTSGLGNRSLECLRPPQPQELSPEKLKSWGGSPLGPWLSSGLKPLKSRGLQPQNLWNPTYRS
Experimental: as §2

cSRC(h) = cSRC(h) (Homo sapiens, UniProt P12931); experiment: Kinase Profiler; assay type: biochemical
Experimental: as §2

Flt3(h) = Flt3(h) (Homo sapiens, UniProt P36888); experiment: Kinase Profiler; assay type: biochemical
Chain of Flt3(h) (P36888 27-993): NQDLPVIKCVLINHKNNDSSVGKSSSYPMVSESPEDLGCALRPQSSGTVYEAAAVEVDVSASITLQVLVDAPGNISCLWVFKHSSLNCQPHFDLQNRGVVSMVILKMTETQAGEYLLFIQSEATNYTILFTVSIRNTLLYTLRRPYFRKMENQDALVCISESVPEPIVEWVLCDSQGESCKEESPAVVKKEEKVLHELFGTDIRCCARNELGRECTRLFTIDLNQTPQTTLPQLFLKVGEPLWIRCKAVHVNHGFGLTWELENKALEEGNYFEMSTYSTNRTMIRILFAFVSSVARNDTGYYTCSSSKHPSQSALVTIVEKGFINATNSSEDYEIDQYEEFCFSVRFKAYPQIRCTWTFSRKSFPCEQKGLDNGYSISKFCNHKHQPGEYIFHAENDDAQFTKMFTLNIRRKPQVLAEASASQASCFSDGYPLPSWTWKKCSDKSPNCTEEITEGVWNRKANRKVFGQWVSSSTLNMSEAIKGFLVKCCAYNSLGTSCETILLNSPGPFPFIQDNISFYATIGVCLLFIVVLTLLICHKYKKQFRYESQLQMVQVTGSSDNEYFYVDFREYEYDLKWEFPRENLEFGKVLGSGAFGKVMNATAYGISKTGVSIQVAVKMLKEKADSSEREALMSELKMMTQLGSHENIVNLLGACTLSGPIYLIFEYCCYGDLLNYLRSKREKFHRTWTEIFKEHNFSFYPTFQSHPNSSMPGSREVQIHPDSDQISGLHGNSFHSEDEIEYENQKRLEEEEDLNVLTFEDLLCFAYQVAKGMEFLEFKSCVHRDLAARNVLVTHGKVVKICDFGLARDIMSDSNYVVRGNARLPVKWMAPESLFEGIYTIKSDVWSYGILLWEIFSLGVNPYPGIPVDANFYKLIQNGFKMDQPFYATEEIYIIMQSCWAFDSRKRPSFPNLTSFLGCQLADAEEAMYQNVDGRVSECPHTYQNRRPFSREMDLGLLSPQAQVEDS
Experimental: as §2

Met(Y1248D)(h) = Met(Y1248D)(h) (Homo sapiens, UniProt P08581, Y1230D); experiment: Kinase Profiler; assay type: biochemical
Experimental: as §2

Aurora-A(h) = Aurora-A(h) (Homo sapiens, UniProt O14965); experiment: Kinase Profiler; assay type: biochemical
Chain of Aurora-A(h) (O14965 whole entry): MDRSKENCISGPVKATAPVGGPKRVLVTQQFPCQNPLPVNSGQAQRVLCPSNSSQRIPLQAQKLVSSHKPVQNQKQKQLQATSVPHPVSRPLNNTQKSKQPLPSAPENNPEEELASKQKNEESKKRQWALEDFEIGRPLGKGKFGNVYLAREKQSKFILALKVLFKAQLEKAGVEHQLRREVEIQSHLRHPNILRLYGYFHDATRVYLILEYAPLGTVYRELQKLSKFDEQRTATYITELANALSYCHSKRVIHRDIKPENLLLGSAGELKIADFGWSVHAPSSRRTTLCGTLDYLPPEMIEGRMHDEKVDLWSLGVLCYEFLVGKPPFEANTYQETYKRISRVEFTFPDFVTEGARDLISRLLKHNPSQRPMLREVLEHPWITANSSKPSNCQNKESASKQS
Experimental: as §1

Abl(h) = Abl(h) (Homo sapiens, UniProt P00519); experiment: Kinase Profiler; assay type: biochemical
Chain of Abl(h) (P00519 whole entry): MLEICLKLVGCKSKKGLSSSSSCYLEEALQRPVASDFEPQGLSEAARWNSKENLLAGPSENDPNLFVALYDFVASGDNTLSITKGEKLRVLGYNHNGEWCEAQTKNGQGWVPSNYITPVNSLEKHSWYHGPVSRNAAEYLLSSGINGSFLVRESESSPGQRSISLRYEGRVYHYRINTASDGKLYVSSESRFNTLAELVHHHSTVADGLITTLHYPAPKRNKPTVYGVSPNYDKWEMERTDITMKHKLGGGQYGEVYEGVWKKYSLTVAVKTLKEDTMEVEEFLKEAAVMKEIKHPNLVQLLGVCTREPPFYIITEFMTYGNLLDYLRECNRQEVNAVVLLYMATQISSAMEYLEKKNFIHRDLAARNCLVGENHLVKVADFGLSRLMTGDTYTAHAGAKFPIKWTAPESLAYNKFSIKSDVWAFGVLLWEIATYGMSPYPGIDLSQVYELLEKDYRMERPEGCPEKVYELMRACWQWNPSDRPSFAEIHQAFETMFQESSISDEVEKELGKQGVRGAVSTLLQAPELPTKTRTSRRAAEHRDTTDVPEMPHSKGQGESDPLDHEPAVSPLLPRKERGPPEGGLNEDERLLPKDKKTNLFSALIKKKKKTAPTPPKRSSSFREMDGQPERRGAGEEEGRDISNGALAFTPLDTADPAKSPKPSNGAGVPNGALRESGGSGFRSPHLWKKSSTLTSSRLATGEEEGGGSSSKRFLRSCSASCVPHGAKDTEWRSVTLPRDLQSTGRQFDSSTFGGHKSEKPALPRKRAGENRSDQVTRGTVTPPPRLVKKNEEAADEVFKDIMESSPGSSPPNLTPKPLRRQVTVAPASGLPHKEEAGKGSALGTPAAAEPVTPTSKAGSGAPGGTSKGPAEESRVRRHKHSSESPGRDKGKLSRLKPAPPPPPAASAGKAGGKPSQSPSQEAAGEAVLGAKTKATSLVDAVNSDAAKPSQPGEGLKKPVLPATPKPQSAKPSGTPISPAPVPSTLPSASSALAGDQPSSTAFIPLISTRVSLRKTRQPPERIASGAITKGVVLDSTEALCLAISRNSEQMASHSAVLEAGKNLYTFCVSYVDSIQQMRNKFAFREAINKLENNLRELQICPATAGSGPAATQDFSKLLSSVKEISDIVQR
Experimental: as §2

Adenosine A1 = Adenosine A1 (Homo sapiens, UniProt P30542); experiment: Safety screen; assay type: binding
Experimental: as §2

DYRK3(h) = DYRK3(h) (Homo sapiens, UniProt O43781); experiment: Kinase Profiler; assay type: biochemical
Chain of DYRK3(h) (O43781 whole entry): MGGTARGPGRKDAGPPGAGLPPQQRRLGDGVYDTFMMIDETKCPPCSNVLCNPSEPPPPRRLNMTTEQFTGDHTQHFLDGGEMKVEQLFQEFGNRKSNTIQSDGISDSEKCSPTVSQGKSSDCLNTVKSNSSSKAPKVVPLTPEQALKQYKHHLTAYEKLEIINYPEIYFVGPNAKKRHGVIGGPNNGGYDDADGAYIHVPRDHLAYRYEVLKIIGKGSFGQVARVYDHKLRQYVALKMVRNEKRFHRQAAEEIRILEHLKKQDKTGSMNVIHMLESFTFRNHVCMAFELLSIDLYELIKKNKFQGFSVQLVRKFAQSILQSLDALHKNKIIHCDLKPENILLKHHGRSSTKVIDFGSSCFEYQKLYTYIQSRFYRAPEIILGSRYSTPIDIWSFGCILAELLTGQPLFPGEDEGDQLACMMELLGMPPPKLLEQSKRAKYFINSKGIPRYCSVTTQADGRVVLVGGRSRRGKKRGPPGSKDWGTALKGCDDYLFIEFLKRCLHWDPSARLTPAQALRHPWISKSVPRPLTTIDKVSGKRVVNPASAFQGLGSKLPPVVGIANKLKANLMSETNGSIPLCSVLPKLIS
Experimental: as §2

Fgr(h) = Fgr(h) (Homo sapiens, UniProt P09769); experiment: Kinase Profiler; assay type: biochemical
Experimental: as §2

Met(M1268T)(h) = Met(M1268T)(h) (Homo sapiens, UniProt P08581, M1250T); experiment: Kinase Profiler; assay type: biochemical
Experimental: as §2

Adrenergic α2A = Adrenergic α2A (Homo sapiens, UniProt P08913); experiment: Safety screen; assay type: binding
Experimental: Blood cell counts, kinase profiler, safety screen, bacterial cytotoxicity, Ames, micronucleus assays were performed by the company Eurofins (France).

VRK2(h) = VRK2(h) (Homo sapiens, UniProt Q86Y07); experiment: Kinase Profiler; assay type: biochemical
Chain of VRK2(h) (Q86Y07 whole entry): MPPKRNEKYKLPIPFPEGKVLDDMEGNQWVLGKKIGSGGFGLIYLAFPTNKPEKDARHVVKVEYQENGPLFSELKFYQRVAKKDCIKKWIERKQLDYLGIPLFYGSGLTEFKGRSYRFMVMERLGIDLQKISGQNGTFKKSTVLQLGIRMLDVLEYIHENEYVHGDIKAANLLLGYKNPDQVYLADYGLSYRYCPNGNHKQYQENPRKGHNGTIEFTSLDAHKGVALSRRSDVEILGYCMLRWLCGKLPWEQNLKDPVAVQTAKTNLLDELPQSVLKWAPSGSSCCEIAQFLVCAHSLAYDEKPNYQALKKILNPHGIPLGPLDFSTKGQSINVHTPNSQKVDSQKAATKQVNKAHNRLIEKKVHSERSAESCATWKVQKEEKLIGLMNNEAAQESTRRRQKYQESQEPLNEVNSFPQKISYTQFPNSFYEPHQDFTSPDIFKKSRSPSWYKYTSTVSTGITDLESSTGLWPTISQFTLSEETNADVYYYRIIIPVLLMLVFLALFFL
Experimental: as §2

RAC1 = target: T1, RAC1 (Mus musculus, UniProt P63001); experiment: RAC-GTP pull-down assay, EGF-stimulated NIH/3T3 fibroblasts; assay type: cell-based; details: 10^-5 M, 1 h, EGF 10 ng/mL 5 min
T1 construct: endogenous in cells; host or cells: NIH/3T3 fibroblasts (ATCC CRL-1658), EGF-stimulated
Experimental: Figure 2 Identification of a new RAC1 inhibitor (A) Effect of A41 and NSC23766 on ruffle formation (white arrows) induced by EGF (10 ng/mL) in NIH 3T3 cells in serum-free culture medium (CTL). Inhibitors were added at indicated concentration 1 h prior to EGF stimulation. To assess cytoskeleton organization, cells were incubated with Alexa Fluor 488 phalloidin to visualize F-actin. Results shown are representative of 3 independent experiments. Corresponding concentration-response curves have been established by counting the percentages of cells with ruffles (scale bars: 10 μm). (B) Immunoblot analysis and associated quantification of RAC-GTP level and total RAC expression in NIH 3T3 cells stimulated by EGF (10 ng/mL, 5 min) and pre-incubated or not (−) with NSC23766, A41, or A415 at 10^−5 M for 1 h (∗∗∗p < 0.001 vs. controls without EGF stimulation, ^###p < 0.001 vs. controls with EGF stimulation) (N > 3). (C) Representative surface plasmon resonance (SPR) sensograms of binding of immobilized RAC1 with increasing concentrations of A41 with or without EDTA (20 mM) (N > 3). (D) Representative in vitro nucleotide exchange catalyzed by the DH-PH of TIAM (10 nM) measured by the binding of fluorescent mant-GTP (1 μM) to RAC1 (0.5 μM, preloaded with GDP) in the presence of indicated concentrations of A41 (out of N = 6). Dotted lines correspond to the experimental curves, and continuous lines represent the fit of experimental points. (E) Kobs and Kmax were determined in each condition (N = 6). (F) Predicted binding modes of A4 to the NSC23766-binding site (left) or the GDP-binding pocket of RAC1 (right). In the NSC23766-binding site of RAC1, the compound A4 (carbon atoms in blue) makes 2 hydrogen bonds (green dotted line) with Ser71 (S71) and 10 hydrophobic interactions (pink dotted line) with Ala3 (A3), Lys5 (K5), Val36 (V36), Trp56 (W56), Tyr64 (Y64), and Leu67 (L67) leading to a docking score of −6.03 kcal/mol. The GDP molecule is shown with fine line. The P loop is shown in yellow, the switch 1 in orange, and the switch 2 in green. […]
Pull-down assay using GST-PBD fusion proteins were performed on NIH-3T3 lysates to assess RAC1 activity as previously described.[63] The precipitated active RAC was subjected to SDS-PAGE and detected by immunoblot with anti-RAC1 antibody (BD biosciences) (dilution 1/1000). […]
screening molecules (10^-5 M) on NIH/3T3 cell adhesion (xCELLingence Real-time cellanalysis, Agilent), migration (CYTOO Mobility plates) and proliferation (xCELLingence Real-time cell analysis, Agilent) .The level of RAC activation is determinedby the detection of RAC-GTP (pull-down assay) in NIH/3T3 cell treated with EGF (10 ng/mL) and the differentmolecules and normalize to the level of RAC activity measuredin the presenceof the reference RAC inhibitor EHT1864.

EphA2(h) = EphA2(h) (Homo sapiens, UniProt P29317); experiment: Kinase Profiler; assay type: biochemical
Experimental: as §1

SAPK2a(T106M)(h) = SAPK2a(T106M)(h) (Homo sapiens, UniProt Q16539, T106M); experiment: Kinase Profiler; assay type: biochemical
Chain of SAPK2a(T106M)(h) (Q16539 whole entry T106M): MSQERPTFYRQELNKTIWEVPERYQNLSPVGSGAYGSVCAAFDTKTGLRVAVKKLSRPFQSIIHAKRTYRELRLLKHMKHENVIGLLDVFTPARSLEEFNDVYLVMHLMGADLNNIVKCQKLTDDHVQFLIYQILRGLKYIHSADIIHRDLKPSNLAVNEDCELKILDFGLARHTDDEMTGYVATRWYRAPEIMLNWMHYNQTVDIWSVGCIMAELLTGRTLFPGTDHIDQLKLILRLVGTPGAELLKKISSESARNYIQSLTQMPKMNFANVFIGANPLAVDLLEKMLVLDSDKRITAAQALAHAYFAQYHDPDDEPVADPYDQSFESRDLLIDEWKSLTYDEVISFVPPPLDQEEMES
Experimental: as §2

COc1ccc(OC)c(NS(=O)(=O)c2ccc(NC(=O)CCSc3ccc(C)cc3)cc2)c1 [Compound A41]
Activity(%) (Tie2 (h)): 110%
Activity(%) (PI3KC2g(h)): 114%
Activity(%) (TSSK1(h)): 103%
Activity(%) (PKCα(h)): 105%
Activity(%) (CRIK(h)): 106%
Activity(%) (EGFR(T790M)(h)): 113%
Activity(%) (LTK(h)): 113%
Activity(%) (cSRC(h)): 111%
Activity(%) (Flt3(h)): 98%
Activity(%) (Met(Y1248D)(h)): 118%
Activity(%) (Aurora-A(h)): 124%
Activity(%) (Abl(h)): 90%
% inh. (Adenosine A1): 2%
Activity(%) (DYRK3(h)): 112%
Activity(%) (Fgr(h)): 114%
Activity(%) (Met(M1268T)(h)): 108%
% inh. (Adrenergic α2A): 29%
Activity(%) (VRK2(h)): 110%
RAC1 activation (active GTP-bound RAC1) (RAC1): blocked RAC1 activation
Activity(%) (EphA2(h)): 98%
Activity(%) (SAPK2a(T106M)(h)): 98%
